According to publication PMC6956804, “Potent antibacterial activity of MSI-1 derived from the magainin 2 peptide against drug-resistant bacteria” (Theranostics, 2020):
Peptide text beside a SMILES is read from it.

Assays:
[1] = test system: S. epidermidis (methicillin-resistant); test: Time-killing assay; type: cell-based; conditions: 4× MIC, time-kill curve
Protocol: (§1) Bacteria were incubated with MSI-1, penicillin G sodium salt, vancomycin or methicillin at 4× MIC. Samples were removed at 0, 0.5, 1, 2, 4, and 8 h for bacterial counts.

[2] = test system: ndm-1-carrying recombinant E. coli; test: Time-killing assay; type: cell-based; conditions: 4× MIC, time-kill curve
Protocol: as §1

E. coli genomic DNA = test: Gel retardation assay, DNA binding; conditions: 15 min, 1% agarose gel
Protocol: Bacterial genomic DNA was obtained by a BacteriaGen DNA Kit and quantified by a Thermo Scientific NanoDrop™ 2000c Spectrophotometer. Bacterial genomic DNA samples were incubated with isovolumetric MSI-1 at room temperature for 15 min. The gel retardation assay for DNA shift was performed by 1% w/v agarose gel (pre-stained by SYBR Green I) electrophoresis. In UV spectroscopic study, different concentrations of peptide were titrated into genomic DNA (0.5 μg/ml). After 15 min to equilibrate, the UV spectra for DNA and MSI-1-DNA complex were recorded at wavelength range of 230-350 nm. In addition, DNA dissolved in Tris-HCl (pH 7.4, CDNA=0.1 mg/ml) was mixed with EB solution (5 μM). After 10 min incubation in the dark, the EB-DNA mixture was added with different concentrations of MSI-1. Thirty minutes later, the fluorescence spectra were recorded at excitation wavelength 535 nm to measure the competitive binding of MSI-1 and EB with bacterial DNA. […] Secondary structure change of E. coli DNA was analyzed. Moreover, the intracellular changes in E. coli morphology was observed by a JEOL 1230 transmission electron microscopy (TEM) after 2 h coincubation with MSI-1.

pepsin = pepsin (Sus scrofa, UniProt P00791); conditions: peptide:protease 300:1, 0.1 M NH4HCO3 pH 8.2, room temperature, HPLC; peak time shifted from 6.187 to 6.792 min (0.5 h)
Description: (§3) Aliquots of the mixture were extracted periodically and diluted with water/acetonitrile (3:2, v:v) containing 2% TFA for HPLC detection or for antibacterial activity assay [18].

trypsin = test: in vitro; conditions: pH 8.2
Description: as §3

E. coli = test: ONPG assay, release of cytoplasmic β-galactosidase; type: cell-based; conditions: 2 h
Protocol: E. coli were mixed with different concentrations of MSI-1, incubated for 2 h, resuspended by PI solution (20 μg/ml), and ultimately subjected to flow cytometry for PI uptake assay. Calcein-loaded liposomes were prepared to imitate bacterial membrane. Serially diluted peptide was added into liposomes (1:1, v:v) after obtaining the fluorescence intensity at λex/λem=490/520 nm. Once MSI-1 addition, fluorescence intensity was detected at 0, 3, 5, 10, 15 and 20 min. Calcein release rate was calculated as previously described. To observe bacterial morphology, E. coli treated with MSI-1 (32 μg/ml) or PBS for 2 h was collected, fixed by 2.5% glutaraldehyde and subjected to scanning electron microscopy (SEM) assay (SUI510, Hitachi, Japan). In addition, E. coli were resuspended in reaction buffer (60 mM Na2HPO4^. 7H2O, 40 mM NaH2PO4^. H2O, 10 mM KCl, 1 mM MgSO4.7H2O, 0.27% 2-Mercaptoethanol), incubated with ONPG (2.5 mg/ml) and MSI-1 for 2 h. Bacteria envelope integrity was calculated by the percentage of O-nitrophenol production.

[3] = test system: P. aeruginosa (penicillin resistant, levofloxacin sensitive); test: Resistance study, serial passages; type: cell-based; conditions: serial passages at 1/4× MIC; ratio of MIC to that of first-time exposure
Protocol: (§2) P. aeruginosa and E. coli, which were penicillin resistant but levofloxacin sensitive strains, were exposed to MSI-1, polymyxin and levofloxacin for MIC determination. Resistance study was performed as described previously.

[4] = test system: E. coli (penicillin resistant, levofloxacin sensitive); test: Resistance study, serial passages; type: cell-based; conditions: serial passages at 1/4× MIC; ratio of MIC to that of first-time exposure
Protocol: as §2

[5] = test system: Penicillin-resistant E. coli; test: Local E. coli infection in scalded mouse model; type: in vivo, mice; conditions: for subeschar colonies reduced to: topical once a day
Protocol: To further investigate whether MSI-1 could protect from bacterial infection of the skin, mice were anesthetized with pentobarbital sodium (50 mg/kg, i.p) and shaved on the dorsal surfaces. The depilated skin was secured with 2-cm-diameter plastic containers that filled up with boiling water at contact time 10 s. Afterwards, a full-thickness wound (2 cm in diameter) was cut on the burned skin of each mouse. Penicillin-resistant E. coli suspension (100 µl, 1× 10^10 CFU/ml) was slowly inoculated over wound with a pipette tip, and a gentle stream of air was aimed over the inoculation site until skin appeared wet but absent of any standing volume from the inoculum suspension. Two hours later, vehicle (3% CMC-Na), MSI-1 or polymyxin, which was suspended in sterile CMC-Na (3%) in PBS at concentration of 10, 5, 2.5 mg/ml (MSI-1) or 5 mg/ml (polymyxin), was inoculated on the same area with a pipette tip, 1 ml/kg, once a day (n=15 per group). Mice were fed in cages individually to avoid cross infection and were treated daily for 7 consecutive days. At 3rd and 7th days, cutaneous wound healing and bacteria counts in skin lesion were measured. Moreover, 12 h after the last treatment, blood samples were collected from the retro-orbital venous plexus under anesthesia (pentobarbital sodium, 50 mg/kg). Finally, all animals were euthanized by cervical dislocation to collect the lung samples for counting live bacteria. The contents of TNF-α and IL-6 in skin homogenates and serum were measured by ELISA. Skin lesion was fixed by 4% paraformaldehyde for H&E staining. The expression levels of EGF and VEGF in skin lesion were examined by immunohistochemistry. In addition, the wound scratch assay was also performed on HaCaT cells to further test whether MSI-1 improved wound healing by promoting keratinocyte migration.

[6] = 37 °C for up to 7 days, multigelation at -80 °C for 10 times or boiling at 100 °C for 1 h; HPLC and antibacterial activity
Protocol: MSI-1 were placed at 37 °C for 7 days, repeated multigelation at -80 °C for 10 times or boiled at 100 °C for 1 h, and then subjected to HPLC analysis or antibacterial activity evaluation as above.

Plasma stability = type: in vitro ADME, mouse; conditions: for antibacterial activities after plasma incubation: turbidimetry
Description: (§4) At indicated time points, samples were denatured with equal volumes of 6 M urea and subjected to HPLC analysis or antibacterial activity evaluation.

in vitro = conditions: mouse, 20% fresh mouse serum
Description: as §4

pepsin, sequence (P00791 60-385): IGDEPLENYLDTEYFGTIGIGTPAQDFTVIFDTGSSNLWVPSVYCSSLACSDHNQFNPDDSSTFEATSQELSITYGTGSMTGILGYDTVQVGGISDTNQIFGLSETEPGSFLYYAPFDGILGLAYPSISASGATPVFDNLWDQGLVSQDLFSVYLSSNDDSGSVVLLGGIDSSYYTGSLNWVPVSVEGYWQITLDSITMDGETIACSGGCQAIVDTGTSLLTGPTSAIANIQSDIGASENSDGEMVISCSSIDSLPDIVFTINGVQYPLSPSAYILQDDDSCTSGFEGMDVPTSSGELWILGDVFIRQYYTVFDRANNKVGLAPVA

CC[C@H](C)[C@H](NC(=O)CN)C(=O)N[C@@H](Cc1c[nH]c2ccccc12)C(=O)N[C@@H](CCCCN)C(=O)N[C@@H](Cc1ccccc1)C(=O)N[C@@H](CC(C)C)C(=O)N[C@@H](CCCCN)C(=O)N[C@@H](CCCCN)C(=O)N[C@@H](C)C(=O)N[C@@H](CCCCN)C(=O)N[C@@H](CCCCN)C(=O)N[C@@H](Cc1ccccc1)C(=O)N[C@@H](Cc1c[nH]c2ccccc12)C(=O)N[C@@H](CCCCN)C(N)=O [MSI-1] (H-GIWKFLKKAKKFWK-NH2)
reduction in CFU counts [1]: approximately 5 log units
time to thorough bacteria elimination [1]: ≤ 240 min
time to thorough elimination of the bacteria [2]: ≤ 4 h
dose at which the peptide bound to genomic DNA (E. coli genomic DNA; 1/4× MIC): 2 µg/mL
peptide concentration at which electrophoretic movement of DNA was completely inhibited (E. coli genomic DNA): higher than 4 μg/ml
stability in pepsin solution (pepsin): some peptide hydrolysates might be produced
remaining at 0.5 h (trypsin): < 10%
activity in the supernatants (β-galactosidase release, relative to sonicated bacteria) (E. coli; 2× MIC): 36.7%
activity in the supernatants (β-galactosidase release, relative to sonicated bacteria) (E. coli; 4× MIC): 80.7%
relative MIC after 15 subcultures [3]: remained stable
relative MIC after 15 subcultures [4]: remained stable
TNF-α and IL-6 in skin lesion homogenate ([5]; 10 mg/kg, 7th day, ELISA): strongly reduced
subeschar colonies reduced to ([5]; 10 mg/kg, after 3 days): 38.6%
subeschar colonies reduced to ([5]; 10 mg/kg, after 7 days): 49%
wound closure ([5]; 3rd and 7th days, especially at 10 mg/kg): significantly improved wound closure
bacterial colonies in the lung and blood ([5]; 7th day, MSI-1 5 and 10 mg/kg, polymyxin B, p<0.01 vs the model group): obviously decreased
expression of EGF and VEGF in the burned and infected skin ([5]; immunohistochemistry): no obvious effect
thermal stability [6]: maintained its structure and potent antimicrobial activity
remaining at 0.5 h, 1.6 mg/ml (Plasma stability; 20% fresh mouse plasma, 37 °C, 0.5 h, HPLC, read-out: remaining peptide): ~77%
remaining peptide (Plasma stability; 20% fresh mouse plasma, 37 °C, 2 h, HPLC): ~67.5%
antibacterial activities after plasma incubation (Plasma stability; 20% fresh mouse plasma, 0.5 h): 97.2%
antibacterial activities after plasma incubation (Plasma stability; 20% fresh mouse plasma, 2 h): 60.7%
bacteriostatic activity (Plasma stability; either mouse plasma or serum, post 2 h coincubation (summary in the discussion)): approximately 50%
remaining at 2 h, 1.6 mg/ml (Plasma stability; fresh mouse plasma or serum (one summary value for both), either mouse plasma or serum, post 2 h coincubation (summary in the discussion), read-out: remaining peptide): 60%
remaining at 0.5 h, 1.6 mg/ml (in vitro): 92.5%
remaining at 2 h, 1.6 mg/ml (in vitro): 53.5%
